# Measurements as given in PubChem BioAssay AID2060484 (Molecular Pharmacology Branch, DTP, NCI, 2025).
# Tested on: SUM149PT spheroids with HUVEC/MSC, viability
# Assay: Anticancer human tumor SUM149PT cell line growth inhibition [GQUAD];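 note: spheroids exposed to drugs for seven days before readout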;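 for viability, T/C: percent viability relative to DMSO vehicle control taken as 100%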
# Conditions: for IC50: curve of first compound; for viability, T/C: stronger effect = lower value
# Procedure, shortened: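 Multi-cell-type spheroids of tumor cells with HUVEC and mesenchymal stem cells, treated with drug combinations. Concentrations descend in half-log steps from near clinical Cmax, or from 10 microM where Cmax is unknown; viability read-out.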
# [1] = second compound 0.0316 µM, first compound 0.0316 µM
# [2] = second compound 0.0316 µM, first compound 0.1 µM
# [3] = second compound 0.0316 µM, first compound 0.316 µM
# [4] = second compound 0.0316 µM, first compound 1 µM
# [5] = second compound 0.0316 µM, first compound 3.16 µM
# [6] = second compound 0.0316 µM, first compound 10 µM
# [7] = second compound 0.1 µM, first compound 0.0316 µM
# [8] = second compound 0.1 µM, first compound 0.1 µM
# [9] = second compound 0.1 µM, first compound 0.316 µM
# [10] = second compound 0.1 µM, first compound 1 µM
# [11] = second compound 0.1 µM, first compound 3.16 µM
# [12] = second compound 0.1 µM, first compound 10 µM
# [13] = second compound 0.316 µM, first compound 0.0316 µM
# [14] = second compound 0.316 µM, first compound 0.1 µM
# [15] = second compound 0.316 µM, first compound 0.316 µM
# [16] = second compound 0.316 µM, first compound 1 µM
# [17] = second compound 0.316 µM, first compound 3.16 µM
# [18] = second compound 0.316 µM, first compound 10 µM
# [19] = second compound 1 µM, first compound 0.0316 µM
# [20] = second compound 1 µM, first compound 0.1 µM
# [21] = second compound 1 µM, first compound 0.316 µM
# [22] = second compound 1 µM, first compound 1 µM
# [23] = second compound 1 µM, first compound 3.16 µM
# [24] = second compound 1 µM, first compound 10 µM
# [25] = second compound 3.16 µM, first compound 0.0316 µM
# [26] = second compound 3.16 µM, first compound 0.1 µM
# [27] = second compound 3.16 µM, first compound 0.316 µM
# [28] = second compound 3.16 µM, first compound 1 µM
# [29] = second compound 3.16 µM, first compound 3.16 µM
# [30] = second compound 3.16 µM, first compound 10 µM
# [31] = second compound 10 µM, first compound 0.0316 µM
# [32] = second compound 10 µM, first compound 0.1 µM
# [33] = second compound 10 µM, first compound 0.316 µM
# [34] = second compound 10 µM, first compound 1 µM
# [35] = second compound 10 µM, first compound 3.16 µM
# [36] = second compound 10 µM, first compound 10 µM
smiles,measurement,setting,value
CC(=O)O[C@H]1C(=O)[C@@]2(C)[C@H]([C@H](OC(=O)c3ccccc3)[C@]3(O)C[C@H](OC(=O)[C@H](O)[C@@H](NC(=O)c4ccccc4)c4ccccc4)C(C)=C1C3(C)C)[C@]1(OC(C)=O)CO[C@@H]1C[C@@H]2O + CN(C)c1ccc(Nc2c3ccc(NC(=O)CCN4CCCC4)cc3nc3cc(NC(=O)CCN4CCCC4)ccc23)cc1,IC50,second compound 0.0316 µM,< 31.6 nM
same,IC50,second compound 0.1 µM,< 31.6 nM
same,IC50,second compound 0.316 µM,< 31.6 nM
same,IC50,second compound 1 µM,< 31.6 nM
same,IC50,second compound 3.16 µM,< 31.6 nM
same,IC50,second compound 10 µM,< 31.6 nM
same,"viability, T/C",[1],31.9%
same,"viability, T/C",[2],25.3%
same,"viability, T/C",[3],23.8%
same,"viability, T/C",[4],19.5%
same,"viability, T/C",[5],19.8%
same,"viability, T/C",[6],23.6%
same,"viability, T/C",[7],32.8%
same,"viability, T/C",[8],24.7%
same,"viability, T/C",[9],21.6%
same,"viability, T/C",[10],17.8%
same,"viability, T/C",[11],19.6%
same,"viability, T/C",[12],25.7%
same,"viability, T/C",[13],30.6%
same,"viability, T/C",[14],25.6%
same,"viability, T/C",[15],22.8%
same,"viability, T/C",[16],18.3%
same,"viability, T/C",[17],17.2%
same,"viability, T/C",[18],22.8%
same,"viability, T/C",[19],29.6%
same,"viability, T/C",[20],24.4%
same,"viability, T/C",[21],16.5%
same,"viability, T/C",[22],13.8%
same,"viability, T/C",[23],17%
same,"viability, T/C",[24],19.2%
same,"viability, T/C",[25],27.7%
same,"viability, T/C",[26],21.1%
same,"viability, T/C",[27],17.5%
same,"viability, T/C",[28],12.9%
same,"viability, T/C",[29],15.7%
same,"viability, T/C",[30],16.2%
same,"viability, T/C",[31],26.8%
same,"viability, T/C",[32],23.3%
same,"viability, T/C",[33],15.8%
same,"viability, T/C",[34],14.5%
same,"viability, T/C",[35],15.7%
same,"viability, T/C",[36],18.2%
CCCS(=O)(=O)Nc1ccc(F)c(C(=O)c2c[nH]c3ncc(-c4ccc(Cl)cc4)cc23)c1F + CN(C)c1ccc(Nc2c3ccc(NC(=O)CCN4CCCC4)cc3nc3cc(NC(=O)CCN4CCCC4)ccc23)cc1,IC50,second compound 0.0316 µM,7630 nM
same,IC50,second compound 0.1 µM,7280 nM
same,IC50,second compound 0.316 µM,7790 nM
same,IC50,second compound 1 µM,4180 nM
same,IC50,second compound 3.16 µM,3090 nM
same,IC50,second compound 10 µM,2400 nM
same,"viability, T/C",[1],108%
same,"viability, T/C",[2],91.9%
same,"viability, T/C",[3],103%
same,"viability, T/C",[4],98.1%
same,"viability, T/C",[5],74.5%
same,"viability, T/C",[6],42.4%
same,"viability, T/C",[7],95.7%
same,"viability, T/C",[8],103%
same,"viability, T/C",[9],102%
same,"viability, T/C",[10],100%
same,"viability, T/C",[11],76.3%
same,"viability, T/C",[12],40%
same,"viability, T/C",[13],96.4%
same,"viability, T/C",[14],96.2%
same,"viability, T/C",[15],96.4%
same,"viability, T/C",[16],90%
same,"viability, T/C",[17],67%
same,"viability, T/C",[18],45.3%
same,"viability, T/C",[19],92.2%
same,"viability, T/C",[20],84.3%
same,"viability, T/C",[21],91%
same,"viability, T/C",[22],89.7%
same,"viability, T/C",[23],54.6%
same,"viability, T/C",[24],35.4%
same,"viability, T/C",[25],83.2%
same,"viability, T/C",[26],89.6%
same,"viability, T/C",[27],86.4%
same,"viability, T/C",[28],81.7%
same,"viability, T/C",[29],49.3%
same,"viability, T/C",[30],24%
same,"viability, T/C",[31],84.8%
same,"viability, T/C",[32],80.4%
same,"viability, T/C",[33],89.6%
same,"viability, T/C",[34],71.1%
same,"viability, T/C",[35],43.2%
same,"viability, T/C",[36],11.9%
Cn1ncnc1[C@H]1c2n[nH]c(=O)c3cc(F)cc(c23)N[C@@H]1c1ccc(F)cc1 + CN(C)c1ccc(Nc2c3ccc(NC(=O)CCN4CCCC4)cc3nc3cc(NC(=O)CCN4CCCC4)ccc23)cc1,IC50,second compound 0.0316 µM,> 316 nM
same,IC50,second compound 0.1 µM,> 316 nM
same,IC50,second compound 0.316 µM,> 316 nM
same,IC50,second compound 1 µM,> 316 nM
same,IC50,second compound 3.16 µM,> 316 nM
same,IC50,second compound 10 µM,> 316 nM
same,"viability, T/C","second compound 0.0316 µM, first compound 0.000999 µM",110%
same,"viability, T/C","second compound 0.0316 µM, first compound 0.00316 µM",91.4%
same,"viability, T/C","second compound 0.0316 µM, first compound 0.00999 µM",94.5%
same,"viability, T/C",[1],92.1%
same,"viability, T/C","second compound 0.0316 µM, first compound 0.0999 µM",91.9%
same,"viability, T/C",[3],69.4%
same,"viability, T/C","second compound 0.1 µM, first compound 0.000999 µM",95%
same,"viability, T/C","second compound 0.1 µM, first compound 0.00316 µM",99.5%
same,"viability, T/C","second compound 0.1 µM, first compound 0.00999 µM",91.5%
same,"viability, T/C",[7],89.5%
same,"viability, T/C","second compound 0.1 µM, first compound 0.0999 µM",92.4%
same,"viability, T/C",[9],66.6%
same,"viability, T/C","second compound 0.316 µM, first compound 0.000999 µM",96%
same,"viability, T/C","second compound 0.316 µM, first compound 0.00316 µM",83.4%
same,"viability, T/C","second compound 0.316 µM, first compound 0.00999 µM",98.1%
same,"viability, T/C",[13],78.2%
same,"viability, T/C","second compound 0.316 µM, first compound 0.0999 µM",81.1%
same,"viability, T/C",[15],64.9%
same,"viability, T/C","second compound 1 µM, first compound 0.000999 µM",87.6%
same,"viability, T/C","second compound 1 µM, first compound 0.00316 µM",88.1%
same,"viability, T/C","second compound 1 µM, first compound 0.00999 µM",77%
same,"viability, T/C",[19],81.5%
same,"viability, T/C","second compound 1 µM, first compound 0.0999 µM",81.2%
same,"viability, T/C",[21],56.7%
same,"viability, T/C","second compound 3.16 µM, first compound 0.000999 µM",79.3%
same,"viability, T/C","second compound 3.16 µM, first compound 0.00316 µM",89%
same,"viability, T/C","second compound 3.16 µM, first compound 0.00999 µM",80.3%
same,"viability, T/C",[25],80.8%
same,"viability, T/C","second compound 3.16 µM, first compound 0.0999 µM",73.8%
same,"viability, T/C",[27],56%
same,"viability, T/C","second compound 10 µM, first compound 0.000999 µM",88.9%
same,"viability, T/C","second compound 10 µM, first compound 0.00316 µM",79%
same,"viability, T/C","second compound 10 µM, first compound 0.00999 µM",72.2%
same,"viability, T/C",[31],83.5%
same,"viability, T/C","second compound 10 µM, first compound 0.0999 µM",74.2%
same,"viability, T/C",[33],52.3%
